Assay [1] deals with SD rat platelets. Briefly: Platelet adhesion to collagen on glass slides, fluorescence imaging analysis. The conditions noted are these: IOX2 0.1 μM, 1 μM, 10 μM incubated with 100 μg/mL PHD2 protein; 10 μg/mL type I collagen. It counts as cell-based. The procedure: Different doses of PHD2 inhibitor IOX2 (0.1 μM, 1 μM, 10 μM) are taken and incubated with 100 μg/mL PHD2 protein at 4° C. for 8 hours, then 10 μg/mL type I collagen is mixed with the above solution and added dropwise to glass slides, and incubated at 4° C. overnight. SD rat platelets (2×10^7 cells/mL) are then inoculated on the glass slides and incubated at 37° C. for 90 minutes. After being fully washed by PBS, the fixed platelets are stained with Calcein-AM dye, fluorescence imaging analysis is performed using fluorescence microscope (Leica TCS SP8, Germany), and statistical analysis is performed on platelets with collagen adhesion using Image J software. The results are shown as in FIG. 5A.

For assay [2], the system named is SD rat platelets. Briefly: Collagen-platelet adhesion assay. Format: cell-based. The following applies: 1 μM IOX2-treated PHD2 protein, 10 μg/mL type I collagen. The method, then:
(§1) The binding of platelets to collagen occurs mainly through VWF as a junction. PHD2 promotes the hydroxylation of collagen to form a three-dimensional structure to better bind to VWF. To verify the above principle, 10 μg/mL type I collagen is mixed with 1 μM IOX2-treated PHD2 protein and inoculated into a black 96-well plate, incubated at 4° C. overnight. Parallel triplicates, for the first one, SD rat platelets (2×10^7 cells/mL) are added and incubated at 37° C. for 90 minutes, after full washing with PBS, the fixed platelets are stained with Calcein-AM dye. For the second one, the primary antibody of VWF (Beijing Boaosen Biology technology Co., LTD., bs-20428R) is incubated at 4° C. overnight, after the excess primary antibody is washed away by PBS, the fluorescent secondary antibody (Abcam, ab150077) is incubated at 37° C. for 1 hour, and the excess secondary antibody is washed away. For the third one, SD rat plasma is added, incubated at room temperature for 4 hours, and then SD rat platelets (2×10^7 cells/mL) are added, incubated at 37° C. for 90 minutes, after full washing with PBS, the fixed platelets are stained with Calcein-AM dye. The fluorescence values of respective groups are measured by a multifunctional microplate reader at the excitation wavelength of 488 nm and the emission wavelength of 525 nm.

Another assay relates to binding of collagen-VWF. Briefly: Collagen-VWF binding assay. The conditions noted are these: 1 μM IOX2-treated PHD2 protein, 10 μg/mL type I collagen; VWF antibody detection. The procedure:
as §1

Assay [3] concerns SD rat platelets. Briefly: Collagen-VWF-platelet adhesion assay. It counts as cell-based. The following applies: 1 μM IOX2-treated PHD2 protein, 10 μg/mL type I collagen; SD rat plasma then platelets. The method, then:
as §1

For assay [4], the system named is soft tissue injury in rats. Briefly: Blood microcirculation disorder induced by acute soft tissue injury in rats. It counts as in vivo, SD rats. The conditions noted are these: N-acetylcysteine 70 mg/kg/d i.p., ginsenoside CK 25 and 12.5 mg/kg/d i.p., vs model group; for whole blood viscosity: low, medium and high shear rate. The procedure:
SD male rats are taken and randomly divided into a blank control group, a model group, a positive control group (N-acetylcysteine, intraperitoneally injected at 70 milligrams per kilogram per day abbreviated as mg/kg/d), and high and low dose ginsenoside CK groups (intraperitoneally injected at 25 mg/kg/d and 12.5 mg/kg/d). The blank control group and the model group are given the same volume of sterile drinking water in the same manner. The molding is investigated three days after pre-administration. The rats are first anesthetized with 1% pentobarbital sodium (40 mg/kg), and the hair of the right buttocks and posterior thighs of the anesthetized rats are removed and fixed on the plate of an acute soft tissue injury modeling device. A 100 g weight is selected to impact the lateral aspect of the mid-right calf with five free-falls from a height of 100 centimeters (cm) causing soft tissue injury. The rats with successful modeling are continued to be administered for 4 days, and 1 hour after the last administration, the rats are anesthetized, blood is collected from the abdominal aorta with a blood viscometer to detect the viscosity of whole blood of the rats with high shear rate [200 s], medium shear rate [30 s], low shear rate [3 s], and low shear rate [1 s]. Coagulation parameters, such as erythrocyte aggregation index, erythrocyte packed-cell volume, platelet number and mean platelet volume, are determined by using a blood cell analyzer.

Assay [5] concerns LPS-induced DIC model in mice. Briefly: LPS-induced disseminated intravascular coagulation (DIC) model in mice. Format: in vivo. The following applies: aspirin 10 mg/kg taken orally, Daprodustat 10 mg/kg intraperitoneal injection. The procedure:
The sh-PHD2 mice and sh-ctrl blank mice are randomly divided into a blank group and a model group, with 6 mice in each group. The model group is injected intraperitoneally with 10 milligrams per kilogram (mg/kg) lipopolysaccharide abbreviated as LPS (Beijing Solarbio Science & Technology Co., Ltd., Cat. No. L8880) to induce the mice to establish a disseminated intravascular coagulation (DIC) model, and the blank group is injected intraperitoneally with the corresponding volume of physiological saline. After 2 hours, the mice are anesthetized by intraperitoneal injection of 1% pentobarbital sodium (40 mg/kg), and the tail is cut at a site of 3 millimeters (mm) from the tip of the tail of each mouse, and the tail is placed vertically in 37° C. physiological saline immediately after the first drop of blood is sucked up on filter paper to record the tail bleeding time.
In addition to the blank group, the other groups use the method of the embodiment 1 to prepare the LPS-induced DIC model in mice, and the administration group is given drug intervention 1 hour before modeling.

For assay [6], the target named is T1, PHD2 protein (Homo sapiens, UniProt Q9GZT9). Briefly: Surface plasmon resonance (SPR) interaction analysis with PHD2. Format: binding. The conditions noted are these: Biacore T200, CM5 chip, 1.56 μM to 200 μM, read-out: dissociation constants KD with PHD2 protein. The procedure:
The interaction between these active natural products and recombinant human PHD2 protein is analyzed by surface plasmon resonance (SPR) technique using a Biacore™ T200 surface plasmon resonance analyzer from GE healthcare. The CM5 chip is selected, the purified PHD2 protein is immobilized on the channel of the chip, and the active natural product solution as a mobile phase is flowed through the chip, with the concentration ranging from 1.56 μM to 200 μM. The flow rate of mobile phase is 30 μL/min, and the dissociation is monitored for 150 seconds.
(In general: Surface plasmon resonance follows binding to a sensor surface in real time, without labels.)

Assay [7] deals with T1, PHD2 protein. Briefly: PHD2 enzyme activity, 2-oxogalarate-phenylenediamine method. Format: biochemical. Also on record: purchased Abcam ab132273.
Description: 1 micromole per liter (μM) PHD2 inhibitor is incubated with 100 micrograms per milliliter (μg/mL) PHD2 protein (Abcam, Cat. No. ab132273) at 4° C. for 8 hours, and its inhibitory effect on PHD2 enzyme activity is determined according to the 2-oxogalarate-phenylenediamine method.
100 μL of PHD2 enzyme solution incubated with the PHD2 inhibitor is taken and 100 μL of reaction substrate (300 μM of 2-oxogalarate, 150 μM of Fe^2+) is added, followed by 100 μL of 0.5 moles (M) of hydrogen chloride (HCl) and 10 mg/mL of o-phenylenediamine, and the reaction is carried out at 95° C. for 15 minutes after mixing, so as to obtain a reaction product. The reaction product is centrifuged to taken the supernatant, 10 μL of 1.25 M of sodium hydroxide (NaOH) is added to terminate the reaction, and the fluorescence value of the reaction is determined using 340 nanometers (nm) excitation at the emission wavelength of 420 nm, the results are shown in FIG. 3B.
In assay [8] the test system is Pseudomonas aeruginosa infected mice. In words: Blood coagulation function in mice infected with Pseudomonas aeruginosa. It counts as in vivo, ICR (CD-1) mice. The following applies: plasma 24 hours after infection; polydatin 10, 20, 40 mg/kg i.p.; aspirin 30 mg/kg gavage; Daprodustat 15 mg/kg i.p.; vs model group. The method, then:
ICR (CD-1) male mice are taken and randomly divided into 7 groups (6 mice in each group), which are a blank control group, a model group, an aspirin positive control group (gavage at 30 mg/kg), a Daprodustat-positive control group (intraperitoneally injected at 15 mg/kg), and low, medium and high doses of polydatin group (intraperitoneally injected at 10 mg/kg, 20 mg/kg, 40 mg/kg). Mice are anesthetized by intraperitoneal injection of 1% pentobarbital sodium (40 mg/kg). Activated Pseudomonas aeruginosa (1×10^7/20 μL) is added dropwise into the nasal cavity of mice in the model group and each administration group, and an equal amount of physiological saline is dropped into the blank control group. The respective groups are administered at 0 and 8 hours after molding, respectively. 24 hours after infection, plasma is obtained by blood sampling from mouse eyeballs, and four indexes of coagulation (prothrombin time, activated partial […] and fibrinogen) are measured by a semi-automatic coagulation analyzer.

Here are results for five compounds from patent publication US20250262229A1, “APPLICATION OF PHD2 INHIBITOR IN PREPARATION OF DRUGS FOR PREVENTION AND TREATMENT OF PLATELET THROMBUS” (Nankai University, priority 2024, published 2025).

What is called Kd is the free concentration of one partner at which half of the binding sites on the other are occupied at equilibrium, for simple one-to-one binding.

T1 sequence (Q9GZT9 whole entry): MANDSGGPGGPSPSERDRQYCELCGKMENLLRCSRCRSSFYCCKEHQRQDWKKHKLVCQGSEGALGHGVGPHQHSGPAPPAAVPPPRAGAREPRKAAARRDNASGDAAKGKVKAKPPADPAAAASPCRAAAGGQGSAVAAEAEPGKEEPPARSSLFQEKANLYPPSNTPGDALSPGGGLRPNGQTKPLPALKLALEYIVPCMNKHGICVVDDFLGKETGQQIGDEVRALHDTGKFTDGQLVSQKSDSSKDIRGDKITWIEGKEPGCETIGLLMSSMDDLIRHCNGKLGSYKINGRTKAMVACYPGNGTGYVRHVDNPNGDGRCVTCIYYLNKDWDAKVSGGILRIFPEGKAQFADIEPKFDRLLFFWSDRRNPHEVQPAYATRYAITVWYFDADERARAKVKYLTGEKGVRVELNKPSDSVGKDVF

For the compound `O=C(O)CNC(=O)c1c(O)c2ccccc2n(Cc2ccccc2)c1=O` [IOX2, N-[[1,2-dihydro-4-hydroxy-2-oxo-1-(phenylmethyl)-3-quinolinyl]carbonyl]-glycine], in the assay with SD rat platelets [1], the “platelet adhesion to collagen (fluorescence imaging)” value is reported as “inhibits platelet adhesion to collagen in a concentration-dependent manner”. Further, in the assay on SD rat platelets [2], the PHD2-mediated collagen-platelet adhesion entry is “significantly reduces the occurrence of PHD2-mediated platelet adhesion”. For the same compound, in the assay with binding of collagen-VWF, the “binding of collagen-VWF” value was “affecting the binding of collagen-VWF”. The collagen-VWF-platelet adhesion result with SD rat platelets [3] is reported as “blocking the binding of collagen-VWF-platelet adhesion”.

Regarding `CC(=O)N[C@@H](CS)C(=O)O` [N-acetylcysteine, reference compound], in assay [4], the erythrocyte aggregation index entry is “significantly reduce”, the erythrocyte packed-cell volume result is “significantly reduce”, the mean platelet volume result is given as “improved” and the platelet number entry was “significantly reduce”. The whole blood viscosity result in [4] is reported as “improved to a certain extent”.

In the case of `CC(=O)Oc1ccccc1C(=O)O` [aspirin], the “pulmonary thrombi, Masson staining of lung tissues” value in assay [5] was “significantly inhibit the formation of thrombus”. In assay [5] (vs LPS group), the tail bleeding time entry is on record as “significantly increase” and the tail bleeding volume result is given as “significantly increase”.

With `CC(C)=CCC[C@](C)(O[C@@H]1O[C@H](CO)[C@@H](O)[C@H](O)[C@H]1O)[C@H]1CC[C@]2(C)[C@@H]1[C@H](O)C[C@@H]1[C@@]3(C)CC[C@H](O)C(C)(C)[C@@H]3CC[C@]12C` [ginsenoside CK], the Kd on PHD2 protein [6] was determined as 18 µM. Also, in [4], the erythrocyte aggregation index result is listed as “significantly reduce”, the erythrocyte packed-cell volume entry is “significantly reduce”, the mean platelet volume result is “improved” and the platelet number result is “significantly reduce”. Moreover, in assay [4], the whole blood viscosity entry was “improved to a certain extent”. At PHD2 protein [7] (ginsenoside CK at 0.5 μM, 5 μM, 50 μM), the “inhibition of PHD2 enzyme activity” value is on record as “inhibit the PHD2 enzyme activity in a concentration gradient”.

For the compound `OC[C@H]1O[C@@H](Oc2cc(O)cc(/C=C/c3ccc(O)cc3)c2)[C@H](O)[C@@H](O)[C@@H]1O` [polydatin], the Kd on PHD2 protein [6] is 23.5 µM. In assay [8], the “activated partial thrombin time” value was “significantly prolong”, the “fibrinogen content in blood” value is reported as “reduced”, the prothrombin time entry was “significantly prolong” and the thrombin time result is “significantly prolong”. Besides, on PHD2 protein [7] (polydatin at 0.1 μM, 1 μM, 10 μM), the “inhibition of PHD2 enzyme activity” value is on record as “inhibit the PHD2 enzyme activity in a concentration gradient”.
